Test results published in patent publication US4605744A, “Imidazole derivatives” (Hoffmann-La Roche Inc., priority 1985, dated 1986).
Where a name gives a salt, the structure may show the parent alone.

Columns and labels:
S. pyogenes 4 = test: In vivo antibacterial activity (PD50); settings: Streptococcus pyogenes, 4, sc, sc; Table 9; read-out: PD50
E. aerogenes 8 = test: In vivo antibacterial activity (PD50); settings: Klebsiella aerogenes, 8; sc; Table 9; read-out: PD50
K. pneumoniae 503-990A = test: In vivo activity alone and in combination (PD50, FIC); settings: Klebsiella pneumoniae, 503990A, sc, alone
Method: In Tables 9-14, the results of the in vivo activity against certain microorganisms of compounds I, M and N as given. […] The results in these Tables and the PD50 's were determined by the procedure set forth on page 160 in Beskid et al., Antimicrobial Agents and Chemotherapy, Vol. 20, No. 2 pp. 159-167 (Aug. 1981) for "in vivo studies".
In the Tables, the fractional inhibitory concentration index (FIC) for synergistic combination of a compound of this invention (X) with known antibiotic compound (Y) is determined by the following formula:
FIC=(PD50 (X combination)/PD50 (X alone)+(PD50 (Y
combination)/PD50 (Y alone)
An FIC of ≤0.60 is indicative of synergy. The synergy rating in the Tables is as follows:
In the combination, the parts are parts by weight, i.e. 10 to 1 is 10 parts by weight to 1 part by weight.

S. marcescens SM = test: In vivo antibacterial activity (PD50); settings: Serratia marcescens; sc; Table 9
S. faecalis C1 [1] = test: In vivo antibacterial activity (PD50); settings: Enterococcus faecalis, C1; sc; Table 9
S. pneumoniae 6302 [2] = test: In vivo antibacterial activity (PD50); settings: Streptococcus pneumoniae, 6302, sc, Table 9
C. diversus CDC 1663-72 = test: In vitro antibacterial activity (MIC); type: cell-based; settings: Citrobacter koseri, CDC166372; C. diversus CDC 1663-72; read-out: MIC
Outline: (§1)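 Mueller-Hinton broth carries the compound at 128–0.008 μg/ml; diluted drug may be used fresh or stored frozen at -10° to -70° C before use. Wells are seeded with a 10^-2 dilution of overnight culture and incubated overnight at 37° C.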

E. coli 503-455 = test: In vitro antibacterial activity (MIC); type: cell-based; settings: Escherichia coli, 503455
Outline: as §1

E. coli R-563 = test: In vitro antibacterial activity (MIC); type: cell-based; settings: Escherichia coli, R563, E. coli R-563; read-out: MIC
Outline: as §1

P. aeruginosa Stone 130 = test: In vitro antibacterial activity (MIC); type: cell-based; settings: Pseudomonas aeruginosa, STONE130, read-out: MIC
Outline: as §1

P. aeruginosa 8710 = test: In vitro antibacterial activity (MIC); type: cell-based; settings: Pseudomonas aeruginosa; P. aeruginosa 8710; read-out: MIC
Outline: as §1

E. cloacae 6951 = test: In vitro antibacterial activity (MIC); type: cell-based; settings: Enterobacter cloacae, 6951
Outline: as §1

S. faecalis C1 [3] = test: In vitro antibacterial activity (MIC); type: cell-based; settings: Enterococcus faecalis; S. faecalis C1; read-out: MIC
Outline: as §1

S. pneumoniae 6301 = test: In vitro antibacterial activity (MIC); type: cell-based; settings: Streptococcus pneumoniae, 6301
Outline: as §1

S. marcescens S1 = test: In vitro antibacterial activity (MIC); type: cell-based; settings: Serratia marcescens, S1, S. marcescens S1; read-out: MIC
Outline: as §1

E. coli 5152 [4] = test: In vitro antibacterial activity (MIC); type: cell-based; settings: Escherichia coli, 5152
Outline: as §1

C. freundii CDC6 = test: In vitro antibacterial activity (MIC); type: cell-based; settings: Citrobacter freundii, CDC6, C. freundii CDC6; read-out: MIC
Outline: as §1

K. pneumoniae 35 = test: In vitro antibacterial activity (MIC); type: cell-based; settings: Klebsiella pneumoniae; K. pneumoniae 35; read-out: MIC
Outline: as §1

S. typhi P58A = test: In vitro antibacterial activity (MIC); type: cell-based; settings: Salmonella enterica, TYPHI
Outline: as §1

E. coli 387-1 = test: In vitro antibacterial activity (MIC); type: cell-based; settings: Escherichia coli, 3871, E. coli 387-1; read-out: MIC
Outline: as §1

E. coli 48 = test: In vitro antibacterial activity (MIC); type: cell-based; settings: Escherichia coli, 48, E. coli 48; read-out: MIC
Outline: as §1

P. aeruginosa B = test: In vitro antibacterial activity (MIC); type: cell-based; settings: Pseudomonas aeruginosa, read-out: MIC
Outline: as §1

P. aeruginosa 503-56 [5] = test: In vitro antibacterial activity (MIC); type: cell-based; settings: Pseudomonas aeruginosa, 50356, P. aeruginosa 503-56; read-out: MIC
Outline: as §1

S. pyogenes 503-782 = test: In vitro antibacterial activity (MIC); type: cell-based; settings: Streptococcus pyogenes, 503782; S. pyogenes 503-782; read-out: MIC
Outline: as §1

K. pneumoniae 503-964 = test: In vitro antibacterial activity (MIC); type: cell-based; settings: Klebsiella pneumoniae, 503964; K. pneumoniae 503-964; read-out: MIC
Outline: as §1

P. aeruginosa 5700 = test: In vitro antibacterial activity (MIC); type: cell-based; settings: Pseudomonas aeruginosa, 5700, P. aeruginosa 5700; read-out: MIC
Outline: as §1

S. pneumoniae 6302 [6] = test: In vitro antibacterial activity (MIC); type: cell-based; settings: Streptococcus pneumoniae, 6302, S. pneumoniae 6302; read-out: MIC
Outline: as §1

E. coli 4 = test: In vitro antibacterial activity (MIC); type: cell-based; settings: Escherichia coli, 4, E. coli 4; read-out: MIC
Outline: as §1

E. coli 5152 [7] = test: In vivo antibacterial activity (PD50); settings: Escherichia coli, 5152, sc, Table 9
P. aeruginosa 503-56 [8] = test: In vivo antibacterial activity (PD50); settings: Pseudomonas aeruginosa, 50356, sc, Table 9
S. aureus Smith = test: In vivo antibacterial activity (PD50); settings: Staphylococcus aureus, sc, Table 9

CC1(C)S[C@@H]2[C@H](N=CN3CCC(CCCn4ccnc4N)CC3)C(=O)N2[C@H]1C(=O)O [I, [2S-(2alpha,5alpha,6beta)]-6-[[[4-[3-(2-amino-1H-imidazol-1-yl)propyl]piperidinyl]methylene]amino]-3,3-dimethyl-7-oxo-4-thia-1-azabicyclo[3.2.0]hpetane-2-carboxylic acid hydrochloride]
ED50 (S. pyogenes 4): 11 mg/kg | ED50 (E. aerogenes 8): > 250 mg/kg | ED50 (K. pneumoniae 503-990A; Table 14 line (1)): < 2 mg/kg | ED50 (K. pneumoniae 503-990A; Table 14 line (2)): < 2 mg/kg | ED50 (S. marcescens SM): > 250 mg/kg | ED50 (S. faecalis C1 [1]): > 250 mg/kg | ED50 (S. pneumoniae 6302 [2]): 202 mg/kg | MIC (C. diversus CDC 1663-72): 0.031 µg/mL | MIC (E. coli 503-455): 1 µg/mL | MIC (E. coli R-563): 0.062 µg/mL | MIC (P. aeruginosa Stone 130): > 128 µg/mL | MIC (P. aeruginosa 8710): 128 µg/mL | MIC (E. cloacae 6951): 8 µg/mL | MIC (S. faecalis C1 [3]): > 128 µg/mL | MIC (S. pneumoniae 6301): 2 µg/mL | MIC (S. marcescens S1): 0.062 µg/mL | MIC (E. coli 5152 [4]): 4 µg/mL | MIC (C. freundii CDC6): 0.031 µg/mL | MIC (K. pneumoniae 35): 0.25 µg/mL | MIC (S. typhi P58A): 0.062 µg/mL | MIC (E. coli 387-1): 0.062 µg/mL | MIC (E. coli 48): 0.031 µg/mL | MIC (P. aeruginosa B): 0.062 µg/mL | MIC (P. aeruginosa 503-56 [5]): 128 µg/mL | MIC (S. pyogenes 503-782): > 128 µg/mL | MIC (K. pneumoniae 503-964): 0.062 µg/mL | MIC (P. aeruginosa 5700): 0.062 µg/mL | MIC (S. pneumoniae 6302 [6]): 4 µg/mL | MIC (E. coli 4): 0.031 µg/mL | ED50 (E. coli 5152 [7]): > 250 mg/kg | ED50 (P. aeruginosa 503-56 [8]): > 250 mg/kg | ED50 (S. aureus Smith): 61 mg/kg
